Test results reported in ChEMBL document CHEMBL1142656, “Identification of 3-(acylamino)azepan-2-ones as stable broad-spectrum chemokine inhibitors resistant to metabolism in vivo” (2005).

Test system: THP-1
Experiment: In vitro activity to inhibit MCP-1-induced leukocyte migration of THP-1 cells
Type: functional
Settings: Homo sapiens, read-out: ED50 (the source's name)

EC50 [nM]	SMILES
100	C=CCCCCCCCCC(=O)N[C@H]1CCCNC1=O
33	C=CCCCCCCCCC(=O)N[C@H]1CCC(=O)N(C)C1=O
10	C#CCCCCCCCCC(=O)N[C@H]1CCCCNC1=O
50	CCCCCCCCCCC(=O)N[C@H]1CCCCNC1=O
40000	CCCCCCCCCCC(=O)N[C@H](CCC(=O)O)C(N)=O
3	CCCCCC/C=C\CCCCCCCC(=O)N[C@H]1CCCCNC1=O
250	C=CCCCCCCCCC(=O)N[C@@H]1CCC(=O)NC1=O
10000	CCCCCCCCCCC(=O)N[C@@H](CCC(=O)O)C(=O)O
3	CCCCCCCCCCCCCCCC(=O)N[C@H]1CCCCNC1=O
40	C=CCCCCCCCCC(=O)N[C@H]1CCCCNC1=O
245	C=CCCCCCCCCC(=O)N[C@H]1CCNC1=O
15	CCCCCCCCCCCC(=O)N[C@H]1CCCCNC1=O
30000	CCCCCCCCCCC(=O)N[C@@H](CCC(N)=O)C(=O)O
5	CCCCCCCCCCCCCC(=O)N[C@H]1CCCCNC1=O
5	C=CCCCCCCCCC(=O)N[C@H]1CCC(=O)NC1=O
3	CCCCCCCC/C=C\CCCCCCCC(=O)N[C@H]1CCCCNC1=O
30	CCCCCCCC/C=C\CCCCCCCC(=O)N[C@@H]1CCCCNC1=O
50000	CCCCCCCCCCC(=O)N[C@H](CCC(N)=O)C(=O)O
25000	CCCCCCCCCCC(=O)N[C@H](CCC(=O)O)C(=O)O
15000	CCCCCCCCCCC(=O)N[C@@H](CCC(=O)O)C(N)=O
40	CCCCCCCCCCCCCCCC(=O)N[C@@H]1CCCCNC1=O
10	CCCCCCCCCCC(=O)NC1CCC(=O)NC1=O (single isomer, unassigned)
> 100000	N[C@@H](CCCC(=O)O)C(=O)O [(S)-2-AMINOADIPIC ACID]
> 100000	N[C@H](CCC(=O)O)C(=O)O [D-GLUTAMATE]
